Measurements reported in publication PMC12323621, “Exploring the antimicrobial activity of pantothenamides against uropathogenic Escherichia coli” (Microbiology Spectrum, 2025).
Converted amounts (≈) assume the structure as drawn. Read-outs that look alike come from different tables or passages of the source.

Experiments:
[1] = Phase I metabolic stability in mouse liver microsomes; format: in vitro ADME; conditions: for remaining at 1 h, 1 µM: mouse, liver microsomes, pH 7.4, 1 h; for stability in mouse liver microsomes: n = 3
Method: (§1) Stability studies were conducted in mouse liver microsomes, mouse liver tissue homogenate, and CD1 mouse plasma as previously described with minor modifications ([54][–][56]). Briefly, for Phase I mouse liver microsome stability, reactions were carried out with 200 mM potassium phosphate buffer, pH 7.4, with or without an NADPH-regenerating system (1.3 mM NADPH, 3.3 mM glucose 6-phosphate, 3.3 mM MgCl2, 0.4 U/mL glucose-6-phosphate dehydrogenase, and 50 µM sodium citrate). Reactions, in triplicate, were initiated by the addition of liver microsomes to the incubation mixture (compound final concentration was 1 µM; 0.2 mg/mL microsomes) and incubated at 37°C for the desired incubation time. For liver stability, the tissue homogenate was prepared by washing tissues with diluted 10-fold 0.1 M potassium phosphate buffer and homogenized using a probe sonicator over ice. To evaluate the stability of the drugs over time, each of the crude homogenates was aliquoted to 1 mL and then spiked with a final assay concentration of 10 µM of each drug, followed by incubation in an orbital shaker at 37°C for 1 h (in triplicate). For plasma stability, 1 mL of plasma was spiked with 10 µM of each drug, followed by incubation in an orbital shaker at 37°C for 1 h (in triplicate). Samples from each metabolism study were quenched with 3× volume of acetonitrile containing internal standard (losartan: 0.5 µM) at the desired incubation times. […] Samples were vortex-mixed for 30 s and centrifuged at 10,000 × g for 10 min at 4°C. Compound disappearance over time was monitored using a Dionex ultra-high-performance liquid chromatography system consisting of an analytical pump and an autosampler coupled with Q Exactive Focus orbitrap mass spectrometer (Thermo Fisher Scientific Inc., Waltham MA). […] The mobile phase used was composed of 0.1% formic acid in water and 0.1% formic acid in acetonitrile with gradient elution. The total run time for each analyte was 5 min.
(§2) The mass spectrometer was operated with a HESI ion source in positive ionization mode where compounds were identified in the full scan mode (from m/z 75.00–1125.00) and controlled by the Xcalibur software 4.0.27.13 (Thermo Scientific). Data were acquired using Xcalibur software. Drugs were identified in the full-scan mode (from m/z 75.00 to 1125.00) by comparing t = 0 samples with t = 30 or 60 min samples, and structures were proposed based on the accurate mass information. The percentage of compound remaining for pantothenamides 1, 6, and 7 was determined from the analyte/internal standard (IS) area ratios obtained at t = 30 or 60 min relative to the mean ratios obtained at t = 0 min and calculated using equation 1:
(§3) % Remaining=(Peak area of Analyte/Preak area of ISat t=30 or 60 min/MeanPeak area of Analyte/Peak area of ISat t=0 min)×100

[2] = Stability in mouse liver homogenate; format: in vitro ADME; conditions: for remaining at 1 h, 10 µM: mouse, liver tissue homogenate (10% wt/vol), 10% wt/vol homogenate, 10 µM compound, 37°C; for stability in mouse liver homogenate: n = 3
Method: as §1, §2, §3

UPEC strain CFT073 [3] = test system: UPEC strain CFT073; parameters: method as in PMID 37107054; conditions: cited from earlier work
UPEC strain CFT073 [4] = test system: UPEC strain CFT073; parameters: method as in PMID 37107054; conditions: 1 combined with BAP; cited from earlier work
serum pantetheinases = conditions: cited from earlier work
mammalian cells = conditions: cited from earlier work

## CCCCCNC(=O)CCNC(=O)[C@H](O)C(C)(C)CO [compound 1, N-pentylpantothenamide, reference compound]
[1]; with NADPH, 1 µM compound, 0.2 mg/mL microsomes, read-out: % remaining in mouse liver microsomes, presence of NADPH
  remaining at 1 h, 1 µM: 90%
[1]; without NADPH, 1 µM compound, 0.2 mg/mL microsomes, read-out: % remaining in mouse liver microsomes, absence of NADPH
  remaining at 1 h, 1 µM: 93%
[1]
  stability in mouse liver microsomes: good stability
[2]
  remaining at 1 h, 10 µM: 17%
  stability in mouse liver homogenate: unstable
UPEC strain CFT073 [3]; UPEC CFT073
  fold drop in potency in urine versus MOPS-glycerol: ≥ 30 fold
UPEC strain CFT073 [3]; UPEC, commercial pooled human urine
  MIC in commercial pooled human urine: 156 µM (≈ 45 µg/mL)
UPEC strain CFT073 [4]
  interaction with BAP against UPEC in urine: synergy

## CCCCCNC(=O)CNC(=O)[C@H](O)C(C)(C)CO [compound 6, N5-α-pantothenamide]
[1]; 1 h, with NADPH, 1 µM compound, 0.2 mg/mL microsomes
  % remaining in mouse liver microsomes, presence of NADPH: no degradation
[1]; 1 h, without NADPH, 1 µM compound, 0.2 mg/mL microsomes
  % remaining in mouse liver microsomes, absence of NADPH: no degradation
[1]
  stability in mouse liver microsomes: good stability
[2]
  remaining at 1 h, 10 µM: 96%
  stability in mouse liver homogenate: good stability
Serum pantetheinases
  stability in the presence of serum pantetheinases: stable
Mammalian cells
  toxicity to mammalian cells: non-toxic
